Experiments:
Hymenolepis nana [1] = test: Test for anthelminthics, cestodes (R. CAVIER; R. CAVIER and M. J. NOTTEGHEM); assay type: in vivo; parameters: Hymenolepis nana: (4) percentage of activity: concentration or dose not given beside the values; conditions: Table II; 10 subjects
Description: (§1) Biological tests have been performed with a great number of compounds of formula I, using the following techniques: 1)- Test for amoebicidal activity described by R. CAVIER, Ann. pharm. franc. 1960, 18, pages 583-589 and by R. CAVIER and J. CENAC, Bull. Soc. Path. exot. 1972, 65, pages 399-404. 2) - Test for trichomonacidal activity described by R. Cavier and P. BUOT, Ann. Pharm. franc., 1964, 22, pages 211-216 and by R. CAVIER and J. CENAC, Semaine des Hopitaux, 1972, 48, pages 391-394. 3)- Tests for anthelminthics described for nematodes (such as Syphacia obvelata) by R. CAVIER, Bull. Soc. Path. exot. 1962, 55, pages 412-417, and for cestodes (such as Hymenolepis nana), by R. CAVIER, Ann. pharm. franc. 1956, 14, pages 545-552 and by R. CAVIER and M. J. NOTTEGHEM, Ann. Pharm. franc., 1968, 28, pages 603-606.

Syphacia obvelata = test: Test for anthelminthics, nematodes (R. CAVIER); assay type: in vivo; parameters: Syphacia: (4) percentage of activity: concentration or dose not given beside the values; conditions: Table II; 10 subjects
Description: as §1

Biomphalaria glabrata = test: Molluscicidal activity test; assay type: in vivo; conditions: 24 h exposure at 26°C, observed again after 24 h, 10, 1 and 0.1 ppm tested, read-out: dose at which active against Biomphalaria glabrata
Experimental: For determining the molluscicidal activity, the following test is used:
Two to four weeks old molluscs are used. Five molluscs having the same size are put in the same container and covered with a testing solution at a temperature of 26°C during 24 hours. After rinsing, the animals are again observed after 24 hours. The total duration of this test therefore is 48 hours.
Testing solutions containing respectively 10, 1 and 0.1 parts per million of the compounds to be tested in water having a hardness of 10° (hydrotimetric) are used.
The sensitivity of the mollusc strain is standardized with known reference molluscicides such as Niclosamide (Registered Trademark).

Hymenolepis nana [2] = test: Tests on Hymenolepis nana in mice, anthelminthic activity, single dose (technique of R. CAVIER); assay type: in vivo; parameters: Mortality: unit not given here
Description: Tests on Hymenolepis nana in mice have also been performed in order to determine the anthelminthic activity of various cmpounds of formula I, according to the technique of R. CAVIER. […] Four hours later, the animals have been purged by means of sodium sulfate.

Acute toxicity in mice = conditions: mouse, in vivo
Description: Toxicity investigations have shown that the compounds of formula I have a very low acute toxicity both on oral administration and on intraperitoneal administration to mice.

CC(=O)Oc1ccc(C(=O)Nc2ncc([N+](=O)[O-])s2)cc1OC(C)=O [PH 6162]
Hymenolepis nana: (2) number of dead subjects (Hymenolepis nana [1]): 0 | Hymenolepis nana: (3) number of subjects from which the parasite has been eradicated (Hymenolepis nana [1]): 1 | Hymenolepis nana: (4) percentage of activity (Hymenolepis nana [1]): 10% | Syphacia: (2) number of dead subjects (Syphacia obvelata): 0 | Syphacia: (3) number of subjects from which the parasite has been eradicated (Syphacia obvelata): 2 | Syphacia: (4) percentage of activity (Syphacia obvelata): 20%

CC(=O)Oc1cc(C(=O)Nc2ncc([N+](=O)[O-])s2)cc(OC(C)=O)c1OC(C)=O [PH 6177]
Hymenolepis nana: (2) number of dead subjects (Hymenolepis nana [1]): 0 | Hymenolepis nana: (3) number of subjects from which the parasite has been eradicated (Hymenolepis nana [1]): 0 | Hymenolepis nana: (4) percentage of activity (Hymenolepis nana [1]): 0% | Syphacia: (2) number of dead subjects (Syphacia obvelata): 0 | Syphacia: (3) number of subjects from which the parasite has been eradicated (Syphacia obvelata): 0 | Syphacia: (4) percentage of activity (Syphacia obvelata): 0%

CC(=O)Oc1ccccc1C(=O)Nc1ncc([N+](=O)[O-])s1 [PH 5776]
minimal effective concentration (Biomphalaria glabrata): 1 µg/mL | Mice from which parasite has been eradicated, number (Hymenolepis nana [2]; 25 mg/kg): 20 | Mice from which parasite has been eradicated, percentage (Hymenolepis nana [2]; 25 mg/kg): 100% | Mortality (Hymenolepis nana [2]; 25 mg/kg): 0 | Mice from which parasite has been eradicated, number (Hymenolepis nana [2]; 50 mg/kg): 30 | Mice from which parasite has been eradicated, percentage (Hymenolepis nana [2]; 50 mg/kg): 100% | Mortality (Hymenolepis nana [2]; 50 mg/kg): 0 | Mice from which parasite has been eradicated, number (Hymenolepis nana [2]; 100 mg/kg): 10 | Mice from which parasite has been eradicated, percentage (Hymenolepis nana [2]; 100 mg/kg): 100% | Mortality (Hymenolepis nana [2]; 100 mg/kg): 0 | Mice from which parasite has been eradicated, number (Hymenolepis nana [2]; 200 mg/kg): 10 | Mice from which parasite has been eradicated, percentage (Hymenolepis nana [2]; 200 mg/kg): 100% | Mortality (Hymenolepis nana [2]; 200 mg/kg): 0 | Hymenolepis nana: (2) number of dead subjects (Hymenolepis nana [1]): 0 | Hymenolepis nana: (3) number of subjects from which the parasite has been eradicated (Hymenolepis nana [1]): 10 | Hymenolepis nana: (4) percentage of activity (Hymenolepis nana [1]): 100% | Syphacia: (2) number of dead subjects (Syphacia obvelata): 0 | Syphacia: (3) number of subjects from which the parasite has been eradicated (Syphacia obvelata): 6 | Syphacia: (4) percentage of activity (Syphacia obvelata): 60% | LD50 (Acute toxicity in mice; ip, intraperitoneal administration): > 95 mg/kg | LD50 (Acute toxicity in mice; oral administration): > 4000 mg/kg

CC(=O)Oc1cccc(C(=O)Nc2ncc([N+](=O)[O-])s2)c1 [PH 6045]
minimal effective concentration (Biomphalaria glabrata): 10 µg/mL | Hymenolepis nana: (2) number of dead subjects (Hymenolepis nana [1]): 0 | Hymenolepis nana: (3) number of subjects from which the parasite has been eradicated (Hymenolepis nana [1]): 4 | Hymenolepis nana: (4) percentage of activity (Hymenolepis nana [1]): 40% | Syphacia: (2) number of dead subjects (Syphacia obvelata): 0 | Syphacia: (3) number of subjects from which the parasite has been eradicated (Syphacia obvelata): 0 | Syphacia: (4) percentage of activity (Syphacia obvelata): 0%

CC(=O)Oc1ccc(C(=O)Nc2ncc([N+](=O)[O-])s2)c(OC(C)=O)c1 [PH 6058]
Hymenolepis nana: (2) number of dead subjects (Hymenolepis nana [1]): 0 | Hymenolepis nana: (3) number of subjects from which the parasite has been eradicated (Hymenolepis nana [1]): 2 | Hymenolepis nana: (4) percentage of activity (Hymenolepis nana [1]): 20% | Syphacia: (2) number of dead subjects (Syphacia obvelata): 0 | Syphacia: (3) number of subjects from which the parasite has been eradicated (Syphacia obvelata): 2 | Syphacia: (4) percentage of activity (Syphacia obvelata): 20%

CC(=O)Oc1ccc(Cl)cc1C(=O)Nc1ncc([N+](=O)[O-])s1 [PH 6057]
minimal effective concentration (Biomphalaria glabrata): 1 µg/mL | Hymenolepis nana: (2) number of dead subjects (Hymenolepis nana [1]): 0 | Hymenolepis nana: (3) number of subjects from which the parasite has been eradicated (Hymenolepis nana [1]): 7 | Hymenolepis nana: (4) percentage of activity (Hymenolepis nana [1]): 70% | Syphacia: (2) number of dead subjects (Syphacia obvelata): 0 | Syphacia: (3) number of subjects from which the parasite has been eradicated (Syphacia obvelata): 2 | Syphacia: (4) percentage of activity (Syphacia obvelata): 20%

CC(=O)Oc1cccc(C(=O)Nc2ncc([N+](=O)[O-])s2)c1OC(C)=O [PH 6239]
minimal effective concentration (Biomphalaria glabrata): 10 µg/mL | Hymenolepis nana: (2) number of dead subjects (Hymenolepis nana [1]): 0 | Hymenolepis nana: (3) number of subjects from which the parasite has been eradicated (Hymenolepis nana [1]): 2 | Hymenolepis nana: (4) percentage of activity (Hymenolepis nana [1]): 20% | Syphacia: (2) number of dead subjects (Syphacia obvelata): 0 | Syphacia: (3) number of subjects from which the parasite has been eradicated (Syphacia obvelata): 1 | Syphacia: (4) percentage of activity (Syphacia obvelata): 10%

COc1cc(C(=O)Nc2ncc([N+](=O)[O-])s2)ccc1OC(C)=O [PH 6196]
Hymenolepis nana: (2) number of dead subjects (Hymenolepis nana [1]): 0 | Hymenolepis nana: (3) number of subjects from which the parasite has been eradicated (Hymenolepis nana [1]): 0 | Hymenolepis nana: (4) percentage of activity (Hymenolepis nana [1]): 0% | Syphacia: (2) number of dead subjects (Syphacia obvelata): 0 | Syphacia: (3) number of subjects from which the parasite has been eradicated (Syphacia obvelata): 0 | Syphacia: (4) percentage of activity (Syphacia obvelata): 0%

CCC(=O)Oc1ccccc1C(=O)Nc1ncc([N+](=O)[O-])s1 [PH 6049]
minimal effective concentration (Biomphalaria glabrata): 1 µg/mL | Mice from which parasite has been eradicated, number (Hymenolepis nana [2]; 25 mg/kg): 8 | Mice from which parasite has been eradicated, percentage (Hymenolepis nana [2]; 25 mg/kg): 40% | Mortality (Hymenolepis nana [2]; 25 mg/kg): 0 | Mice from which parasite has been eradicated, number (Hymenolepis nana [2]; 50 mg/kg): 14 | Mice from which parasite has been eradicated, percentage (Hymenolepis nana [2]; 50 mg/kg): 70% | Mortality (Hymenolepis nana [2]; 50 mg/kg): 0 | Mice from which parasite has been eradicated, number (Hymenolepis nana [2]; 100 mg/kg): 18 | Mice from which parasite has been eradicated, percentage (Hymenolepis nana [2]; 100 mg/kg): 90% | Mortality (Hymenolepis nana [2]; 100 mg/kg): 0 | Mice from which parasite has been eradicated, number (Hymenolepis nana [2]; 200 mg/kg): 20 | Mice from which parasite has been eradicated, percentage (Hymenolepis nana [2]; 200 mg/kg): 100% | Mortality (Hymenolepis nana [2]; 200 mg/kg): 0 | Hymenolepis nana: (2) number of dead subjects (Hymenolepis nana [1]): 0 | Hymenolepis nana: (3) number of subjects from which the parasite has been eradicated (Hymenolepis nana [1]): 10 | Hymenolepis nana: (4) percentage of activity (Hymenolepis nana [1]): 100% | Syphacia: (2) number of dead subjects (Syphacia obvelata): 0 | Syphacia: (3) number of subjects from which the parasite has been eradicated (Syphacia obvelata): 2 | Syphacia: (4) percentage of activity (Syphacia obvelata): 20%

CC(=O)Oc1cc(OC(C)=O)cc(C(=O)Nc2ncc([N+](=O)[O-])s2)c1 [PH 6161]
Hymenolepis nana: (2) number of dead subjects (Hymenolepis nana [1]): 0 | Hymenolepis nana: (3) number of subjects from which the parasite has been eradicated (Hymenolepis nana [1]): 0 | Hymenolepis nana: (4) percentage of activity (Hymenolepis nana [1]): 0% | Syphacia: (2) number of dead subjects (Syphacia obvelata): 0 | Syphacia: (3) number of subjects from which the parasite has been eradicated (Syphacia obvelata): 7 | Syphacia: (4) percentage of activity (Syphacia obvelata): 70%

COc1cc(C(=O)Nc2ncc([N+](=O)[O-])s2)cc(OC)c1OC(C)=O [PH 6059]
minimal effective concentration (Biomphalaria glabrata): 10 µg/mL | Hymenolepis nana: (2) number of dead subjects (Hymenolepis nana [1]): 0 | Hymenolepis nana: (3) number of subjects from which the parasite has been eradicated (Hymenolepis nana [1]): 1 | Hymenolepis nana: (4) percentage of activity (Hymenolepis nana [1]): 10% | Syphacia: (2) number of dead subjects (Syphacia obvelata): 0 | Syphacia: (3) number of subjects from which the parasite has been eradicated (Syphacia obvelata): 2 | Syphacia: (4) percentage of activity (Syphacia obvelata): 20%

CC(=O)Oc1ccc(Br)cc1C(=O)Nc1ncc([N+](=O)[O-])s1 [PH 6103]
minimal effective concentration (Biomphalaria glabrata): 1 µg/mL | Hymenolepis nana: (2) number of dead subjects (Hymenolepis nana [1]): 0 | Hymenolepis nana: (3) number of subjects from which the parasite has been eradicated (Hymenolepis nana [1]): 4 | Hymenolepis nana: (4) percentage of activity (Hymenolepis nana [1]): 40% | Syphacia: (2) number of dead subjects (Syphacia obvelata): 0 | Syphacia: (3) number of subjects from which the parasite has been eradicated (Syphacia obvelata): 2 | Syphacia: (4) percentage of activity (Syphacia obvelata): 20%

CC(=O)Oc1ccc(OC(C)=O)c(C(=O)Nc2ncc([N+](=O)[O-])s2)c1 [PH 6056]
Hymenolepis nana: (2) number of dead subjects (Hymenolepis nana [1]): 0 | Hymenolepis nana: (3) number of subjects from which the parasite has been eradicated (Hymenolepis nana [1]): 6 | Hymenolepis nana: (4) percentage of activity (Hymenolepis nana [1]): 60% | Syphacia: (2) number of dead subjects (Syphacia obvelata): 0 | Syphacia: (3) number of subjects from which the parasite has been eradicated (Syphacia obvelata): 1 | Syphacia: (4) percentage of activity (Syphacia obvelata): 10%

CC(=O)Oc1ccc(C(=O)Nc2ncc([N+](=O)[O-])s2)cc1 [PH 6046]
Hymenolepis nana: (2) number of dead subjects (Hymenolepis nana [1]): 0 | Hymenolepis nana: (3) number of subjects from which the parasite has been eradicated (Hymenolepis nana [1]): 3 | Hymenolepis nana: (4) percentage of activity (Hymenolepis nana [1]): 30% | Syphacia: (2) number of dead subjects (Syphacia obvelata): 0 | Syphacia: (3) number of subjects from which the parasite has been eradicated (Syphacia obvelata): 2 | Syphacia: (4) percentage of activity (Syphacia obvelata): 20%

Source: patent publication US3950351A, “New derivatives of 2-benzamido-5-nitro thiazoles” (S.P.R.L. Phavic, priority 1973, dated 1976)
